Results as given in patent US20250140406A1, “CLASSIFYING TUMORS AND PREDICTING RESPONSIVENESS” (Oncocyte Corporation, priority 2022, published 2025).

Columns and labels:
[1] = tested on: cancer cell lines classified IM, MSL, M; test: PRISM screen compound sensitivity correlated with IM, MSL and M subtype of cell lines (101 gene signature); format: cell-based; settings: for IM Corr test: correlation of PRISM compound sensitivity with IM subtype correlation; for M Corr test: correlation of PRISM compound sensitivity with M subtype correlation; for MSL Corr test: correlation of PRISM compound sensitivity with MSL subtype correlation; for TNBCType train: 101 gene signature
[2] = tested on: cancer cell lines, DetermaIO classes; test: Association of PRISM compound sensitivity with DetermaIO (DTIO) cell line classes; format: cell-based
[3] = subtype (IM, MSL or M) with which PRISM compound sensitivity is negatively correlated, training cell set
[4] = correlation of PRISM compound sensitivity with DTIO, test cell set
[5] = correlation of PRISM compound sensitivity with DTIO, training cell set
[6] = subtype (IM, MSL or M) assigned to the compound by negative correlation of PRISM sensitivity with subtype, training cell set (371 cell lines)
[7] = correlation of PRISM compound sensitivity with DTIO (DetermaIO), test cell set (188 cell lines)
[8] = correlation of PRISM compound sensitivity with DTIO (DetermaIO), training cell set (371 cell lines)
[9] = subtype (IM, MSL or M) with which compound sensitivity is negatively correlated, training cell set (371 cell lines)
[10] = correlation of compound sensitivity with DTIO, test set
[11] = correlation of compound sensitivity with DTIO, training set

| SMILES | DTIO Corr test [2, 4] | DTIO Corr train [2, 5] | IM Corr test ([1]; test cell set (188 cell lines)) | M Corr test ([1]; test cell set (188 cell lines)) | MSL Corr test ([1]; test cell set (188 cell lines)) | also measured |
| --- | --- | --- | --- | --- | --- | --- |
| COc1ccc(/C=C/CCCCOc2ccc(C(=O)c3cccc(C(=O)O)c3)cc2CCC(=O)O)cc1 [LY223982] | −0.04973 | 0.000351 |  |  |  | IM Corr test ([1]; test cell set): 0.01323; M Corr test ([1]; test cell set): 0.005739; MSL Corr test ([1]; test cell set): −0.01914; TNBCType train [1, 3]: MSL |
| O=C1NC(=O)C(c2cnc3ccccn23)=C1c1cn2c3c(cc(F)cc13)CN(C(=O)N1CCCCC1)CC2 [LY2090314] |  |  | −0.01913 | 0.0417 | −0.00714 | TNBCType train [1, 6]: MSL; DTIO Corr test [2, 7]: 0.003829; DTIO Corr train [2, 8]: −0.08353 |
| C[C@@H](Oc1ccc2[nH]nc(/C=C/c3cnn(CCO)c3)c2c1)c1c(Cl)cncc1Cl [LY2874455] | −0.0838 | −0.1449 | −0.01933 | −0.0758 | −0.1021 |  |
| CN(C)C(=O)CCSC(SCCC(=O)O)c1cccc(/C=C/c2ccc3ccc(Cl)cc3n2)c1 (stereo not drawn) [MK-571] | −0.00581 | 0.02432 | −0.02535 | −0.02967 | −0.00401 | TNBCType train [1, 9]: MSL |
| C=CCn1c(=O)c2cnc(Nc3ccc(N4CCN(C)CC4)cc3)nc2n1-c1cccc(C(C)(C)O)n1 [MK-1775] | −0.1537 | −0.09981 |  |  |  | IM Corr test ([1]; test cell set): −0.1878; M Corr test ([1]; test cell set): 0.1655; MSL Corr test ([1]; test cell set): 0.1175 |
| CN(C[C@@H]1COCCO1)S(=O)(=O)Nc1ccc2ccc3ncc(-c4cnn(C)c4)cc3c(=O)c2c1 [MK-2461] |  |  | 0.05424 | −0.1288 | −0.01237 | TNBCType train [1, 6]: MSL; DTIO Corr test [2, 7]: −0.00757; DTIO Corr train [2, 8]: −0.03035 |
| Cc1ccc(CNc2ncnc3ccc(-c4ccc(CO)o4)cc23)o1 [ML167] |  |  | −0.07672 | 0.05836 | 0.01781 | DTIO Corr test [2, 7]: −0.03284; DTIO Corr train [2, 8]: −0.07536 |
| COc1ccccc1N1CCN(CCCCN2C(=O)CCC2=O)CC1 [MM77] | −0.06165 | −0.1241 |  |  |  | IM Corr test ([1]; test cell set): −0.07111; M Corr test ([1]; test cell set): 0.07806; MSL Corr test ([1]; test cell set): 0.009431 |
| O=C(NCCCN1CCCCCC1)C(c1ccccc1)C1CCCCC1 (stereo not drawn) [MR-16728] | 0.04353 | −0.1606 | −0.01298 | 0.0251 | 0.06487 |  |
| O=C(O)/C=C1\CCCc2ccccc2C1O (stereo not drawn) [NCS-382] | −0.1705 | −0.1343 | −0.09394 | 0.1059 | 0.05928 |  |
| CCCN(CCC)CCc1ccc(OC)c(OCCc2ccccc2)c1 [NE-100] | 0.02588 | 0.0932 | 0.02328 | −0.05032 | −0.07257 | TNBCType train [1, 9]: MSL |
| O=Nc1ccc(O)c2ncccc12 [NSC-3852] | −0.00012 | 0.09356 | 0.06425 | −0.1666 | −0.09058 | DTIO Corr test [2, 10]: −0.00012; DTIO Corr train [2, 11]: 0.09356 |
| CCN(CC)CCCC(C)Nc1nc(C)cc(Nc2ccc3nc(C)cc(N)c3c2)n1 (stereo not drawn) [NSC-23766] | 0.048 | 0.0675 | −0.00484 | −0.06657 | 0.1332 |  |
| CCCCCCCC/C=C\CCCCCCCC(=O)NCCc1ccc(O)c(O)c1 [OLDA] |  |  | 0.0783 | −0.1742 | −0.06733 | TNBCType train ([1]; subtype (IM, MSL or M) the PRISM compound sensitivity is associated with, training cell set (371 cell lines)): MSL; DTIO Corr test ([2]; correlation of PRISM compound sensitivity with DTIO, test cell set (188 cell lines)): 0.08614; DTIO Corr train ([2]; correlation of PRISM compound sensitivity with DTIO, training cell set (371 cell lines)): 0.09584 |
| CCCCCCCC/C=C\CCCCCCCC(=O)N[C@@H](CO)Cc1ccc(O)cc1 [OMDM-2] | 0.08864 | 0.00432 |  |  |  | IM Corr test ([1]; test cell set): 0.07857; M Corr test ([1]; test cell set): −0.1315; MSL Corr test ([1]; test cell set): −0.1068; TNBCType train [1, 3]: MSL |
| C#Cc1cccc(Nc2ncnc3cc(OCCOC)c(OCCO)cc23)c1 [OSI-420] |  |  | −0.01776 | 0.1416 | 0.3027 | DTIO Corr test [2, 7]: 0.1184; DTIO Corr train [2, 8]: −0.1185 |
| COc1cc2ncnc(Nc3cccc(Br)c3)c2cc1OC [PD-153035] | −0.03709 | −0.1232 |  |  |  | IM Corr test ([1]; test cell set): −0.1533; M Corr test ([1]; test cell set): 0.2905; MSL Corr test ([1]; test cell set): 0.3911; DTIO Corr test [2, 10]: −0.03709; DTIO Corr train [2, 11]: −0.1232 |
| CC(=O)NCC(=O)N1[C@@H]2CC[C@H]1c1ccc(Nc3ncc(C(F)(F)F)c(NC4CCC4)n3)cc12 [PF-03814735] |  |  | 0.01597 | −0.07539 | −0.04366 | TNBCType train [1, 6]: MSL; DTIO Corr test [2, 7]: −0.05974; DTIO Corr train [2, 8]: −0.01193 |
